Measurements from patent publication US8324280B2, “Treatment of prostate cancer with DDC inhibitor” (The University of British Columbia, priority 2008, dated 2012).

Assays:
[1] = test system: neuroendocrine cancer cell lines; details: including a carcinoid cancer and a small cell lung cancer cell line; cited from earlier work
LNCaP cells = experiment: MTS cell proliferation assay, androgen-dependent LNCaP cells; format: cell-based, human; details: 50 μM
Procedure: Cell proliferation assays were performed using the 3-(4,5-dimethylhiazol-2-yl)-5-(3-carboxymethoxyphenyl)-2-(4-sulfophenyl)-2H-tetrazolium Assay (MTS) according to the manufacturer's protocol, with minor modifications (Promega). LNCaP cells were plated in 96-well plates at a density of 3000 cells per well and incubated in RPMI medium containing 5% CSS for one day. On the following day, the DDC inhibitors, carbidopa (25 and 50 μM) and NSD-1015 (10 μM)±0.1 nM R1881 were added to each well in charcoal-stripped serum (CSS; Hyclone, VWR) RPMI media. The cells were harvested at days 0, 2, 4, 6 and 8, with a medium change every 3 days. Each time point was measured with 6 replicates.
(§1) Student's t-test (two-sample equal variance) was used to evaluate statistically significant differences. All calculated p-values were two-sided and those less than 0.05 were considered statistically significant.

[2] = test system: parental LNCaP xenografts; experiment: Parental LNCaP tumour xenografts in castrated mice, progression to androgen-independence; format: in vivo
Procedure: Parental LNCaP cells were inoculated subcutaneously (s.c.), after resuspension in 0.1 mL of Matrigel (Becton Dickinson Labware), into two flank regions (2.5×10^6 cells/site) of 6 to 8 week old male athymic nude mice (Harlan Sprague Dawley, Inc.) via a 27-gauge needle under halothane anesthesia. Tumour volume and serum PSA measurements (blood collected from the tail vein) were performed once per week after tumours became palpable. PSA levels were measured by ELISA (ClinPro International) and tumour size was calculated by the formula; length×width×depth×0.5236. Once serum PSA values reached 75-100 ng/mL, mice were castrated and treated with or without carbidopa. Carbidopa was purchased from Sigma and dissolved in DMSO. The solution was diluted in PBS to a final concentration of 10% DMSO and sterilized through a 0.2 μm filter. Carbidopa solution was injected intraperitoneally into half of the mice (25 mg per kg of body weight) for the +carbidopa group, while the remaining mice received vehicle injections consisting of 10% DMSO in PBS (−carbidopa group). Injections were carried out daily for the duration of the experiment. Each animal group contained 5-6 mice. Serum PSA and tumour volume values were measured with progression to androgen-independence and normalized to pretreatment values (set at 100%) to obtain the mean percentage PSA and mean tumour volume of pre-treatment (±SEM). All animal procedures were performed according to the guidelines of the Canadian Council of Animal Care and with appropriate institutional certification. Statistical analysis was performed using the Student's t-test (two-sample equal variance) with JMPIN statistical software (Version 4.0.2, SAS Institute Inc.).

C4-2 cells = experiment: MTS cell proliferation assay, androgen-independent C4-2 cells; format: cell-based, human; details: 25 μM
Procedure: Cell proliferation assays were performed using the 3-(4,5-dimethylhiazol-2-yl)-5-(3-carboxymethoxyphenyl)-2-(4-sulfophenyl)-2H-tetrazolium Assay (MTS) according to the manufacturer's protocol, with minor modifications (Promega). C4-2 cells were plated in 96-well plates at a density of 750 cells per well in RPMI medium containing 5% CSS for 1 day. On the following day, the DDC inhibitors, carbidopa (25 μM) and NSD-1015 (10 μM)±0.1 nM R1881 were added to each well in charcoal-stripped serum (CSS; Hyclone, VWR) RPMI media. The cells were harvested at days 0, 2, 4, and 6, with a medium change every 3 days. Each time point was measured with 6 replicates.
as §1

[3] = test system: pure neuroendocrine tumour; details: in combination with other drugs; implanted prostate NE cancer cells; cited from earlier work
LNCaP-DDC xenografts = experiment: LNCaP-DDC (DDC overexpressing) tumour xenografts with carbidopa treatment; format: in vivo, mice; details: 25 mg/kg intraperitoneally daily, Dox
Procedure: LNCaP-DDC and LNCaP-Vector control cells were inoculated subcutaneously (s.c.), after resuspension in 0.1 mL of Matrigel (Becton Dickinson Labware), into two flank regions (2.5×10^6 cells/site) of 6 to 8 week old male athymic nude mice (Harlan Sprague Dawley, Inc.) via a 27-gauge needle under halothane anesthesia. Tumour volume and serum PSA measurements (blood collected from the tail vein) were performed once per week after tumours became palpable. PSA levels were measured by ELISA (ClinPro International) and tumour size was calculated by the formula; length×width×depth×0.5236. Once serum PSA values reached 75-100 ng/mL, mice in both the LNCaP-DDC and LNCaP-Vector control groups were given Dox-treated water (200 μg/mL) and treated with or without carbidopa. Carbidopa was purchased from Sigma and dissolved in DMSO. The solution was diluted in PBS to a final concentration of 10% DMSO and sterilized through a 0.2 μm filter. Carbidopa solution was injected intraperitoneally into half of the mice (25 mg per kg of body weight) for the +carbidopa groups, while the remaining mice received vehicle injections consisting of 10% DMSO in PBS (−carbidopa groups). Injections were carried out daily for the duration of the experiment. […] PSA velocity and tumour growth rate differences were determined by one-way ANOVA and Tukey's multiple comparison test. […]

C[C@@](Cc1ccc(O)c(O)c1)(NN)C(=O)O [carbidopa, α-Methyl-dopahydrazine]
lethality to cancer cell lines [1]: lethal to several but not all tested neuroendocrine cancer cell lines
reduction of number of cells relative to control non-treated cells (LNCaP cells; day 8, absence of androgen): 1.42 fold
reduction of number of cells relative to control non-treated cells (LNCaP cells; day 8, presence of androgen (0.1 nM R1881)): 1.69 fold
decrease in PSA level with treatment versus control group ([2]; 11 weeks): 4.3 fold
decrease in tumour growth versus control group ([2]; 11 weeks): 5.4 fold
tumour volume, of pre-treatment ([2]; castrated mice, 25 mg/kg i.p. daily, 11 weeks): 478±97%
serum PSA level, of pre-treatment ([2]; castrated mice, 25 mg/kg i.p. daily, 11 weeks (termination)): 167±36%
serum PSA level, of pre-treatment ([2]; castrated mice, 25 mg/kg i.p. daily, week 1): 38±5%
serum PSA level, of pre-treatment ([2]; castrated mice, 25 mg/kg i.p. daily, week 10): 148±34%
increase of tumour volume from pre-treatment volume ([2]; over 11 weeks): about 5 fold
reduction of number of cells relative to control non-treated cells (C4-2 cells; day 6, absence of androgen): 1.58 fold
reduction of number of cells relative to control non-treated cells (C4-2 cells; day 6, presence of androgen (0.1 nM R1881)): 1.80 fold
reduction of tumour growth [3]: 40%
PSA velocity (rate of PSA production) (LNCaP-DDC xenografts; over 35 days, PSA normalized to pre-treatment 100%): 14.7±0.6
tumour growth rate (LNCaP-DDC xenografts; over 49 days, volume normalized to pre-treatment 100%): 22.5±3
